{
  "source": "patent US20250320246A1",
  "about": "“3-AZASTEROID COMPOUNDS FOR THE TREATMENT OF DISEASES RELATED TO MITROCHONDRIAL FUNCTION” (NZP UK LIMITED, priority 2022, published 2025)",
  "key": {"[1]": {"test_system": "sporadic PD patient fibroblasts", "experiment": "Mitochondrial membrane potential (MMP, TMRM) in sporadic PD patient fibroblasts", "assay_type": "cell-based, human", "details": "Homo sapiens, Fibroblast, 24 h, 3 sporadic PD patient fibroblasts"}, "[2]": {"test_system": "sporadic Parkinson's disease patient fibroblast lines", "experiment": "Mitochondrial respiration (oxygen consumption rate), Seahorse Mito Stress test", "assay_type": "cell-based, human", "details": "50 nM for 24 hours, sPD fibroblasts", "procedure": "Oxygen consumption rate (OCR) was measured by the Agilent Seahorse Mito Stress test using a 24-well Agilent Seahorse XF analyzer machine (Agilent). Human fibroblasts where plated at a density of 60,000 cells per well. Cells were treated with compound 50 nM for 24 hours prior to measurement. 3 measurements of OCR were taken in each state: basal state, after addition of oligomycin (0.5 μM), FCCP (0.5 μM) and rotenone (1 μM). A cell count was then done on a fixed assay plate using a Hoechst dye (1 μM). Data presented is normalized to cell number."}, "[3]": {"test_system": "iNeurons from sPD patients", "experiment": "Mitochondrial membrane potential (MMP) in iNeurons from sPD patients", "assay_type": "cell-based, human", "procedure": "The fibroblasts lines and iNPC lines have previously been characterised and published in Carling et al, 2020.\nBriefly, iNPCs are plated in a 6-well plate and cultured for 2 days in DMEM/F-12 medium with Glutamax™ supplemented with 1% NEAA, 2% B27 (Gibco) and 2.5 μM of DAPT. On day 3, DAPT is removed and the medium is supplemented with 1 μM smoothened agonist (SAG) and FGF8 (75 ng/ml) for additional 10 days. Neurons are replated at this stage. Subsequently SAG and FGF8 are withdrawn and replaced with BDNF (30 ng/ml), GDNF (30 ng/ml), TGF-b3 ([…]) and dcAMP (2 mM, Sigma) for 15 days, as previously described Schwartzentruber et al, 2020 and Carling et al, 2020. Dopaminergic neurons were treated with compounds at concentrations of 0.1 nM, 1 nM, 3 nM, 10 nM, 30 nM and 100 nM dosing every 3 days for the last 12 days of differentiation.\niNeurons were treated every 3 days for the last 12 days of the differentiation protocol. Cells are plated in 96 well plates; for live imaging cells are incubated for one hour at 37° C. with 80 nM tetramethlyrhodamine (TMRM), 1 μM LysoTracker® Green (Invitrogen) and Hoechst Stain solution (Sigma) at 1 μM before imaging using Opera Phenix™. Cellular ATP measurements are undertaken using ATPlite kit (Perkin Elmer) as per manufacturer's instructions. Mitochondrial reactive oxygen species generation was assessed using mitochondrial NpFR2 (probe; a kind gift from Dr Liz New, University of Sydney, Australia) at 20 μM and Hoechst stain solution at 1 μM for 30 mins at 37° C., then the dyes are removed and cells images using Opera Phenix™. Images generated from the live imaging experiments were analysed using Harmony® (Perkin Elmer software). We developed protocols in order to segment nucleus, cell boundary and processes, mitochondria, lysosomes, autophagosomes. We only analysed the z projection images collected from the z stacks."}, "[4]": {"test_system": "mitochondrial respiratory chain complex I", "experiment": "Complex I assay in mouse whole brain homogenate after IV dosing", "assay_type": "in vivo", "details": "wild type mouse, 2 mg/kg IV", "procedure": "Ex vivo mice brain was homogenated in a buffer of 250 mM sucrose, 20 mM HEPES, 3 mM EDTA, pH 7.5 at 4° C. Homogenisation was carried out using a Dounce homogenizer, for cortex samples, and by repetitive passage through a 0.5 mm syringe for isolated striatum. Samples were then incubated with 30 μl of detergent from the AbCam colorimetric Complex I assay kit on ice for 20 minutes. Samples are then centrifuged at 13,000 rpm for 30 mins. Triplicate samples per condition were blocked using the kit blocking buffer on the AbCam colorimetric Complex I assay kit plate for 3 hours. Samples are then washed using the kit wash buffer 3 times before the addition of the kit assay buffer containing NADH and colorimetric dye. The assay plate is read on a plate reader in a kinetic assay programme reading 450 nm in a 30 second interval for 50 minutes.\nBy 12 hours post injection complex I activity began to reduce again and was elevated by 98% above control. By 24 hours post injection, complex I activity was still elevated by 35% above control levels."}},
  "data": [
    {"smiles": "C[C@H](CCCC(=O)O)[C@H]1CC[C@H]2[C@@H]3[C@@H](O)C[C@@H]4CNCC[C@]4(C)[C@H]3CC[C@]12C.Cl", "note": "[Compound 28b, 3-Aza-7β-hydroxy-25-homo-5β-cholan-25-oic acid hydrochloride]", "values": [
      {"measurement": "EC50", "setting": "[1]; 8-point range 0.06 nM-300 nM", "value": 4.03, "unit": "nM"},
      {"measurement": "Emax", "setting": "[1]; max response with highest dose of compound (300 nM), read-out: MMP % of vehicle, top %", "value": 101, "unit": "%"},
      {"measurement": "activity at 60 pM", "setting": "[1]; max response with lowest dose of compound (0.06 nM), read-out: MMP % of vehicle, bottom %", "value": 92.8, "unit": "%"},
      {"measurement": "basal mitochondrial respiration", "setting": "[2]; p<0.05, vehicle sPD reduced 30% vs controls", "value": "increases basal respiration in the sPD fibroblasts to control levels"},
      {"measurement": "ATP linked respiration", "setting": "[2]; to a lesser extent, vehicle sPD reduced 23% vs controls", "value": "Increases are also seen"},
      {"measurement": "spare respiratory capacity", "setting": "[2]; to a lesser extent, vehicle sPD reduced 42% vs controls", "value": "Increases are also seen"},
      {"measurement": "EC50", "setting": "[3]; Homo sapiens, sPD patient iNeurons, dosing every 3 days for last 12 days of differentiation", "value": 8.2, "unit": "nM"},
      {"measurement": "MMP normalisation (% of controls)", "setting": "[3]; sPD patient iNeurons treated, untreated sPD patients 52", "value": "76 % of controls"},
      {"measurement": "complex I activity", "setting": "[4]; 4 and 8 hours post injection", "value": "remained elevated to a similar extent"},
      {"measurement": "complex I activity increase", "setting": "[4]; 1 hour after dosing", "value": 125, "unit": "%"},
      {"measurement": "complex I activity elevated above control", "setting": "[4]; 12 hours post injection", "value": 98, "unit": "%"},
      {"measurement": "complex I activity elevated above control levels", "setting": "[4]; 24 hours post injection", "value": 35, "unit": "%"}
    ]}
  ]
}
